In BigSolDB 2.1:

CN(CCOc1ccc(CC2SC(=O)NC2=O)cc1)c1ccccn1 (configuration not stated)
solubility (mole fraction)
Settings	in acetone	in acetonitrile	in ethanol	in ethyl acetate	in isopropanol	in methanol	in methyl acetate	in n-butanol	in n-butyl acetate	in n-propanol
283.15 K	0.00177	0.000267	0.000245	0.00123	0.00013	0.000139	0.00123	0.000341	0.000926	0.000276
293.15 K	0.00278	0.000453	0.000341	0.00205	0.000173	–	0.00205	0.000371	0.00117	0.00028
303.15 K	0.00455	0.000744	0.000458	0.003	0.000282	0.000444	0.00335	0.00042	0.00235	0.000323
313.15 K	0.00691	0.00126	0.00067	0.00441	0.000529	0.000745	0.0052	0.00063	0.00355	0.000741
323.15 K	0.00992	–	0.00124	0.00649	0.000992	0.00132	0.00795	0.00147	0.00505	0.00133
333.15 K	–	0.00352	0.00244	0.0118	0.00218	0.00235	0.0126	0.00293	0.0092	0.0029
